What was measured:
Format in all cases: cell-based
[1] = tested on: Rat EpiSCs; experiment: Oct-4 immunostaining of rat EpiSCs grown in supplemented CDM; conditions: for expression of the pluripotency marker Oct-4: after one week in CDM, 5B431542 10 uM, BMP4 10 ng/ml + 5B431542 10 uM, Activin 10 ng/ml + Noggin 100 ng/ml
Protocol: hESCs, mouse ESCs or EpiSCS were fixed for 20 minutes at 4° C. in 4% paraformaldehyde (PFA) and then washed three times in PBS. Cells were incubated for 20 minutes at room temperature in PBS containing 10% goat serum (Serotec) and subsequently incubated over night at 4° C. with primary antibody diluted in 1% goat serum in PBS as follows: SSEA-3 (1:100, Santa Cruz), SSAE-1 (1:25, gift from PW Andrews), Tra-1-60 (1:100, Santa CruZ), Oct-4 (1:100, SantaCruz), Sox2 (1:100, Abeam ab15830), Nanog (1:100, Abeam), Blirnpl (Abeam). Cells were then washed three times in PBS and incubated with fluorescein-Isothiocyanate-conjugated anti-mouse IgG or IgM (Sigma 1:200 in 1% goat serum in PBS) or rat IgM (Jackson laboratory 1:300 in goat serum in PBS) or rabbit IgG (Jackson laboratory 1:200 in donkey serum in PBS) for two hours at room temperature. Unbound secondary antibody was removed by 3 washes in PBS. Hoechst 33258 was added to the first wash (Sigma 1:10000).
Rat EpiSCs were grown in CDM supplemented in the presence of Activin (10 ng/ml), 5B431542 (10 uM), BMP4 10 ng/ml+5B431542 (10 uM) or Activin (10 ng/ml)+Noggin (IOOng/ml). After one week, the expression of the pluripotency marker Oct-4 was analysed using immunostaining. […] Similar results were obtained with mouse EpiSCs.

[2] = tested on: mouse late epiblast layer; experiment: Derivation of EpiSC lines from mouse late epiblast layers; conditions: dissected mouse epiblasts in CDM with BMP4 (50 ng/ml) and LIF
Protocol: Similar culture conditions were tested for derivation of pluripotent cells from pre- and post-implantation rodent embryos. […] For derivation at post implantation stages, the late epiblast layer of embryos at pre- or early gastrulation stages (5.5 dpc or 6.5 dpc) was separated from extraembryonic tissues by microdissection using Cell Dissociation Buffer (Invitrogen) at 4° C. for 15-20 min. to promote dissociation of the layers. […] After 24 hours, the epiblast layers formed colonies of compact cells having a high nucleo-cytoplasmic ratio, a characteristic morphological trait of pluripotent embryonic stem cells. Cells on the edge of the colony started to differentiate the following day, thereby producing a broad ring of stromal cells surrounding smaller aggregates of compact cells. These heterogeneous populations proceeded to form larger colonies of cells 4-5 days later. The latter colonies were picked, dissociated into smaller clumps using collagenase IV (Invitrogen) and then transferred to new dishes. Resulting colonies were passaged again 5 days later using collagenase and mechanical dissociation. […] These cells were designated Epiblast Stem Cells (EpiSCs) on the basis of their origin from pure epiblast cell layers.
Dissected mouse epiblasts were grown in CDM supplemented with BMP4 (50 ng/ml) and LIF, two growth factors required to maintain the pluripotent status of mouse ESCs.

[3] = tested on: rat epiblast layers; experiment: Derivation of EpiSC lines from rat epiblast layers; conditions: addition to CDM supplemented with Activin
Excerpt: The hypothesis that Activin and FGF signalling in pluripotency are conserved in mammalian development is supported by the ability of Activin/Nodal signalling to maintain long-term pluripotency of both human ESCs and mouse EpiSCs. As a further test of this hypothesis, we attempted to derive EpiSCs from rats, a species from which embryonic stem cell derivation has been problematic. Following the method we established in the mouse, epiblast layers were dissected from rat embryos at pre-gastrula stages (E 7.5-8.5) and grown on fibronectin-coated or FBS coated plates in CDM supplemented with Activin and FGF. […] Nevertheless, four EpiSC lines were derived out of 14 embryos of the Wistar strain and 1 EpiSC line was derived out of 20 embryos from the Sprague-Dawley strain using CDM supplemented with Activin alone.

Compound	expression of the pluripotency marker Oct-4 [1]	derivation of EpiSC lines [2]	differentiation of early epiblast cultures [3]	further results
NC(=O)c1ccc(-c2nc(-c3ccccn3)c(-c3ccc4c(c3)OCO4)[nH]2)cc1 [5B431542, reference compound]	loss of Oct-4 expression			differentiation of EpiSCs ([1]; inhibition of Activin/Nodal signalling): induced rapid differentiation of EpiSCs
BMP4: growth factor required with LIF to maintain mouse ESC pluripotency	not able to rescue the pluripotent status of EpiSCs	not able to derive any EpiSC lines		
EGF: growth factor added to rat epiblast cultures			induced differentiation	
FGF2: fibroblast growth factor 2			induced differentiation	
HGF: growth factor added to rat epiblast cultures			induced differentiation	
LIF: Leukaemia Inhibitory Factor		not able to derive any EpiSC lines		
